Reference: patent publication US6599893B2, “Cephalosporin antibiotics and prodrugs thereof” (Essential Therapeutics, Inc., priority 2000, dated 2003)
In brackets after ≈: the same amount, converted by molar mass. Read-outs that look alike come from different tables or passages of the source.

What was measured:
[1] = test system: Staphylococcus aureus Smith (MSSA); assay: Broth microdilution MIC, S. aureus Smith; format: cell-based; settings: for MIC: read-out: MIC S. a. Smith
Description: (§1) Compounds were evaluated for antimicrobial activity against a panel of bacterial strains using a broth microdilution assay performed as recommended by the NCCLS (NCCLS (National Committee for Clinical Laboratory Standards). 1993. Methods for dilution antimicrobial susceptibility tests for bacteria that grow aerobically. NCCLS Document M7-A3, 1993. In: NCCLS Antimicrobial Susceptibility Testing, 3rd Ed.)
(§2) The minimum inhibitory concentration (MIC) is defined as the lowest concentration of a compound that prevents the growth of the bacteria.

[2] = Human serum binding by ultrafiltration; format: in vitro ADME; settings: pooled human serum, ultrafiltration, 10 minutes at 37° C.
Description: Binding of several representative compounds of this invention in pooled human serum was determined using ultrafiltration. Compounds were incubated in serum for 10 minutes at 37° C. in a shaking water bath. Serum ultrafiltrate was accomplished by centrifugation (Amicon Centrifree) for 20 minutes at 25° C. Compound content in the ultrafiltrate was quantified by HPLC. An ultrafilrate obtained by following the same procedure with no added compound was used as a standard.

[3] = test system: Staphylococcus aureus COL (MRSA, non-β-lactamase producing); assay: Broth microdilution MIC, S. aureus COL; format: cell-based; settings: for MIC: read-out: MIC S. a. COL
Description: as §1, §2

[4] = test system: Staphylococcus aureus ATCC 29213 (MSSA); assay: Broth microdilution MIC, S. aureus ATCC 29213; format: cell-based; settings: for MIC: read-out: MIC S. a. 29213
Description: as §1, §2

[5] = test system: Enterococcus faecium ATCC 35667; assay: Broth microdilution MIC, E. faecium ATCC 35667; format: cell-based
Description: as §1, §2

[6] = test system: Staphylococcus aureus 76 (MRSA, β-lactamase producing); assay: Broth microdilution MIC, S. aureus 76; format: cell-based; settings: for MIC: read-out: MIC S. a. 76
Description: as §1, §2

[7] = test system: Enterococcus faecalis ATCC 29212; assay: Broth microdilution MIC, E. faecalis ATCC 29212; format: cell-based
Description: as §1, §2

S. aureus strain Smith = assay: Experimental infection of mice, ED50; format: in vivo, Swiss-Webster mice; settings: for ED50: Staphylococcus aureus, read-out: ED50, mg/kg (95% C.I.)
Description: Staphylococcus aureus strain Smith (ATCC 13709, penicillin-susceptible) or strain 76 (methicillin-resistant) was cultured overnight at 37° C. in brain-heart infusion broth (BHIB). The following morning, a portion of the culture was transferred to fresh BHIB and incubated for an additional 4-5 hours at 37° C. The cells were harvested by centrifugation, washed twice with PBS, and adjusted to the desired inoculum amount. The cell suspension was mixed with an equal volume of sterile 14% hog-gastric mucin (Comber K. R.; Osborne C. D.; Sutherland R.: Comparative effects of amoxicillin and ampicillin in the treatment of experimental mouse infections. Antimicrobial Agents and Chemotherapy 7(2):179-185, 1975). The inoculum was kept in an ice bath until used (preferably in less than one hour).
Male Swiss-Webster mice were challenged intraperitoneally with 0.5 mL of a bacterial suspension of S. aureus strain Smith (LD50). Test compounds were administered subcutaneously in 0.1 mL volumes immediately after inoculation and 2 hours later. […] The total dose associated with 50% survival (ED50) was determined using the probit method (Pasiello, A. P., J. M. Essigmann, and G. N. Wogan.: Rapid and accurate determination of median lethal dose (LD50) and its error with a small computer. J Toxicol. Environ. Health. 3:797-809, 1977).

[8] = Human serum binding estimated from serum effect on MIC (HSB*); format: in vitro ADME; settings: MIC against S. aureus ATCC 29213 in growth medium vs 1:1 growth medium and human serum
Excerpt: An estimate of human serum binding (HSB*) was obtained for some compounds using the MIC values against S. aureus ATCC 29213 determined in growth medium (GM) and in a 1:1 mixture of growth medium and human serum (GM+HS):
HSB*=(MICGM+HS−MICGM)/MICGM 100%

[9] = Staphylococcus aureus Smith (MSSA)
[10] = Staphylococcus aureus COL (MRSA, non-β-lactamase producing)
[11] = Staphylococcus aureus ATCC 29213 (MSSA)
[12] = ATCC35667, Enterococcus faecium ATCC 35667, read-out: MIC E. f. 35667
[13] = Staphylococcus aureus 76 (MRSA, β-lactamase producing)
[14] = ATCC29212, Enterococcus faecalis ATCC 29212, read-out: MIC E. f. 29212
[15] = 50% efficacious dose, S. aureus Smith, mice challenged intraperitoneally, compound subcutaneously at 0 and 2 h, total dose, 72 h survival
[16] = Enterococcus faecium ATCC 35667
[17] = Enterococcus faecalis ATCC 29212

| MIC [1, 9] | MIC [3, 10] | MIC [4, 11] | MIC [5, 12] | MIC [6, 13] | MIC [7, 14] | HSB*, human serum binding calculated using serum effect on MIC [8] | SMILES | also measured |
| --- | --- | --- | --- | --- | --- | --- | --- | --- |
| 0.125 µg/mL (≈ 0.23 µM) | 2 µg/mL (≈ 3.68 µM) | 0.5 µg/mL (≈ 0.921 µM) | 1 µg/mL (≈ 1.84 µM) | 2 µg/mL (≈ 3.68 µM) | 0.25 µg/mL (≈ 0.46 µM) | – | Nc1nc(/C(=N/O)C(=O)N[C@@H]2C(=O)N3C(C(=O)O)=C(Sc4ccncc4CO)CS[C@H]23)c(Cl)s1 [Compound 28] | HSB, human serum binding [2]: >99% |
| – | – | – | – | – | – | – | Nc1nc(/C(=N/O)C(=O)N[C@@H]2C(=O)N3C(C(=O)O)=C(Sc4ccncc4CSc4cccnc4N)CS[C@H]23)c(Cl)s1 [Compound 29] | MIC S. a. Smith [1, 9]: 0.25 µg/mL (≈ 0.384 µM); MIC S. a. COL [3, 10]: 1 µg/mL (≈ 1.54 µM); ED50, mg/kg (95% C.I.) (S. aureus strain Smith; [15]): >5 mg/kg; MIC S. a. 29213 [4, 11]: 0.125 µg/mL (≈ 0.192 µM); MIC E. f. 35667 [5, 16]: 0.5 µg/mL (≈ 0.768 µM); MIC S. a. 76 [6, 13]: 2 µg/mL (≈ 3.07 µM); MIC E. f. 29212 [7, 17]: 0.125 µg/mL (≈ 0.192 µM) |
| 0.125 µg/mL (≈ 0.234 µM) | 2 µg/mL (≈ 3.75 µM) | 0.125 µg/mL (≈ 0.234 µM) | 2 µg/mL (≈ 3.75 µM) | 2 µg/mL (≈ 3.75 µM) | 0.25 µg/mL (≈ 0.468 µM) | — (98%) | Cc1nnsc1SC1=C(C(=O)O)N2C(=O)[C@@H](NC(=O)C(=NO)c3nc(N)sc3Cl)C2SC1 (stereo partly drawn) [Compound 34, (7R)-7-[2-(2-Amino-5-chlorothiazol-4-yl)-2-hydroxyiminoacetylamino]-3-(4-methyl-[1,2,3]thiadiazol-5-ylsulfanyl)-8-oxo-5-thia-1-aza-bicyclo[4.2.0]oct-2-ene-2-carboxylic acid] | – |
| 0.125 µg/mL (≈ 0.257 µM) | 8 µg/mL (≈ 16.4 µM) | 0.125 µg/mL (≈ 0.257 µM) | 2 µg/mL (≈ 4.11 µM) | 8 µg/mL (≈ 16.4 µM) | 1 µg/mL (≈ 2.06 µM) | — (94%) | Nc1nc(C(=NO)C(=O)N[C@@H]2C(=O)N3C(C(=O)O)=C(Sc4cnns4)CSC23)ns1 (stereo partly drawn) [Compound 39, (7R)-7-[2-(5-Amino-[1,2,4]thiadiazol-3-yl)-2-hydroxyimino-acetylamino]-8-oxo-3-([1,2,3]thiadiazol-5-ylsulfanyl)-5-thia-1-aza-bicyclo[4.2.0]oct-2-ene-2-carboxylic acid] | – |
| 0.06 µg/mL (≈ 0.115 µM) | 0.5 µg/mL (≈ 0.962 µM) | < 0.06 µg/mL | 0.5 µg/mL (≈ 0.962 µM) | 1 µg/mL (≈ 1.92 µM) | 0.125 µg/mL (≈ 0.24 µM) | – | Nc1nc(C(=NO)C(=O)N[C@@H]2C(=O)N3C(C(=O)O)=C(Sc4cnns4)CSC23)c(Cl)s1 (stereo partly drawn) [Compound 43, (7R)-7-[2-(2-Amino-5-chlorothiazol-4-yl)-2-hydroxyiminoacetylamino]-8-oxo-3-([1,2,3]thiadiazol-5-ylsulfanyl)-5-thia-1-aza-bicyclo[4.2.0]oct-2-ene-2-carboxylic acid] | HSB, human serum binding [2]: 96% (−) |
| 0.25 µg/mL (≈ 0.835 µM) | 16 µg/mL (≈ 53.4 µM) | < 0.02 µg/mL | 4 µg/mL (≈ 13.4 µM) | 32 µg/mL (≈ 107 µM) | 1 µg/mL (≈ 3.34 µM) | – | C[C@@H](O)[C@H]1C(=O)N2C(C(=O)O)=C(SCCN=CN)C[C@H]12 [Imipenem, reference compound] | ED50 (S. aureus strain Smith; [15]): 0.15 mg/kg |
| – | – | – | – | – | – | – | CN[C@H](CC(C)C)C(=O)N[C@H]1C(=O)N[C@@H](CC(N)=O)C(=O)N[C@H]2C(=O)N[C@H]3C(=O)N[C@H](C(=O)N[C@H](C(=O)O)c4cc(O)cc(O)c4-c4cc3ccc4O)[C@H](O)c3ccc(c(Cl)c3)Oc3cc2cc(c3O[C@@H]2O[C@H](CO)[C@@H](O)[C@H](O)[C@H]2O[C@H]2C[C@](C)(N)[C@H](O)[C@H](C)O2)Oc2ccc(cc2Cl)[C@H]1O [Vancomycin, reference compound] | MIC ([1]; Staphylococcus aureus, MSSA): 0.5 µg/mL (≈ 0.345 µM); MIC ([3]; Staphylococcus aureus, MRSA): 1 µg/mL (≈ 0.69 µM); ED50 (S. aureus strain Smith): 2.1 mg/kg; MIC ([4]; Staphylococcus aureus): 0.5 µg/mL (≈ 0.345 µM); MIC ([5]; Enterococcus faecium, ATCC35667, read-out: MIC E. f. 35667): 0.25 µg/mL (≈ 0.173 µM); MIC ([6]; Staphylococcus aureus, MRSA): 0.5 µg/mL (≈ 0.345 µM); MIC ([7]; Enterococcus faecalis, ATCC29212, read-out: MIC E. f. 29212): 1 µg/mL (≈ 0.69 µM) |

| SMILES | MIC [1, 9] | MIC [3, 10] | MIC [4, 11] | MIC [5, 12] | MIC [6, 13] | MIC [7, 14] | HSB*, human serum binding calculated using serum effect on MIC [8] | also measured |
| --- | --- | --- | --- | --- | --- | --- | --- | --- |
| Nc1nc(/C(=N/O)C(=O)N[C@@H]2C(=O)N3C(C(=O)O)=C(Sc4cccc5nncn45)CS[C@H]23)c(Cl)s1 [Compound 35] | – | – | – | – | – | – | — (88%) | MIC S. a. Smith [1, 9]: 0.25 µg/mL (≈ 0.452 µM); MIC S. a. COL [3, 10]: 4 µg/mL (≈ 7.23 µM); MIC S. a. 29213 [4, 11]: 0.5 µg/mL (≈ 0.904 µM); MIC E. f. 35667 [5, 16]: 4 µg/mL (≈ 7.23 µM); MIC S. a. 76 [6, 13]: 4 µg/mL (≈ 7.23 µM); MIC E. f. 29212 [7, 17]: 0.25 µg/mL (≈ 0.452 µM) |
